Data: patent publication US7074807B2, “Compositions and methods for inducing cell death” (Georgetown University, priority 1998, dated 2006)

Key:
[1] = tested on: PC-3 cells; assay: Apoptosis assay (annexin V-FITC/propidium iodide flow cytometry), serum-free; conditions: 10 mM, 2 h, PC-3
Method: (§1) FIGS. (7A1–7A3), (7B1–7B2), (7C1–7C3), (7D1–7D2), (7E1–7E3), (7F1–7F2). […] Cells were grown in serum-free medium overnight in T-25 flasks and treated with tempol (10 mM) or tempo (10 mM) for various times, trypsinized, and then resuspended in 200 ul 1× binding buffer as described in experimental procedures. The cell suspension was double-stained with annexin V-FITC and propidium iodide and analyzed by flow cytometry. Background signal was determined by comparison with double-stained, single-stained, or unstained control cells. (7A1–7A3), (7C1–7C3), and (7E1–7E3) are cytograms showing a relative distribution of viable (V), apoptotic (A), and necrotic (N) cells at 2 h following tempol or tempo treatment of MDA-MB 231 cells (A), PCI-04A cells (C), and PC-3 cells (E). (7B1–7B3), (7D1–7D2), and (7F1–7F2) are time course analyses of MDA-MB 231 cells (B), PCT-04A cells (D), and PC-3 cells (F). 100,000 cells were analyzed at each time point in triplicate (B) or quadruplicate (D and F). Solid bars, 1% ethanol, striped bars, 10 mM tempol, empty bars, 10 mM tempo. […] Data shown are representative from three to four independent experiments. (7B1–7B2), Time course analysis of MDA-MB 231 cells undergoing apoptosis (annexin V-FITC staining) (7B1), or necrosis (propidium iodide staining) (7B2). Values shown are mean±s.d. of triplicate determinations per time point in each treatment category, and representative of three to four independent experiments. […] (7D1–7D2), Time course analysis of PCI-04A cells undergoing apoptosis (annexin V-FITC staining) (7D1), or necrosis (propidium iodide staining) (7D2). Values shown are mean±s.d. of quadruplicate determinations per time point in each treatment category. […] (7F1–7F2), Time course analysis of PC-3 cells undergoing apoptosis (annexin V-FITC staining) (7F1), or necrosis (propidium iodide staining) (7F2). Values shown are mean±s.d. of quadruplicate determinations per time point in each treatment category. Control/C, cells treated with 1% ethanol for 2 h.
Apoptosis Assay—ApoAlert Annexin V apoptosis detection system (Clontech Lab Inc., Palo Alto, Calif.) was used to measure the relative distribution of apoptotic and necrotic cells. Briefly, cells were seeded at a density of 1×10^6 cells per 25 cm^2 tissue culture flask in medium containing 10% FBS overnight, followed by washing twice in serum-free medium. Cells were maintained overnight in serum-free medium and exposed to tempol (10 mM) or tempo (10 mM) for various times. […] The intensity of the dye uptake by cells was detected using FACStar plus Flow Cytometer (Becton Dickerson, Lincoln Park, N.J.), and data were analyzed using Reproman True Facts software (Seattle, Wash.). […]

[2] = tested on: MDA-MB 231 cells; assay: Cell viability assay (WST-1); format: cell-based, human; conditions: 10 mM, within 2 h
Method: FIG. 6. Effects of tempol and tempo on cell viability. […] Control cells were grown overnight in serum-free medium, followed by treatment with 1% ethanol for various times. Fresh serum-free medium (100 ul) was added to each well in all plates, including controls followed by the addition of WST-1 (10 ul). Plates were incubated for 2 h at 37° C. and the color solution developed by WST-1 was quantified using a MR 700 microplate reader at OD=450/600. Values shown are mean±s.d. of 6 determinations per treatment condition in a representative experiment, and the experiment was repeated three times.
Cell Viability Assay—Effects of nitroxide compounds on cell viability and proliferation were determined using a cell viability detection kit (4-[3-(4-Iodophenyl)-2-(4-nitrophenyl)-2H-5-tetrazolio]-1,3-benzene disulfonate, WST-1) according to the manufacturer's instructions (Boehringer Mannheim, Indianapolis, Ind.). Briefly, MDA-MB 231 cells were seeded onto 96 well plates at density of 10,000 cells per well and maintained overnight in 10% FBS containing medium. The cells were then washed twice with phosphate buffered saline and re-fed in serum-free medium. The following day, cells were treated for various times with tempol (10 mM) or tempo (10 mM), using six wells per treatment condition. […] Plates were incubated for 2 h at 37° C. and analyzed at OD=450/600 using a MR 700 microplate reader.

[3] = tested on: MDA-MB 231 cells; assay: Apoptosis assay (annexin V-FITC/propidium iodide flow cytometry); conditions: 10 mM, MDA-MB 231; for apoptosis/necrosis, time course analysis: up to 3 h
Method: as §1
Apoptosis Assay—ApoAlert Annexin V apoptosis detection system (Clontech Lab Inc., Palo Alto, Calif.) was used to measure the relative distribution of apoptotic and necrotic cells. Briefly, cells were seeded at a density of 1×10^6 cells per 25 cm^2 tissue culture flask in medium containing 10% FBS overnight, followed by washing twice in serum-free medium. Cells were maintained overnight in serum-free medium and exposed to tempol (10 mM) or tempo (10 mM) for various times. This was followed by rinsing twice with serum-free medium prior to trypsinization, dilution in two volumes of serum-free medium, and centrifugation at 10,000× g. The cell pellet was washed once with PBS and resuspended in 200 ul of 1× binding buffer. The cell suspension was double-labeled with fluorescein isothiocyanate (FITC)-labeled annexin V (10 ul) and propidium iodide (PI) (10 ul) according to the manufacturer's instructions. Unlabeled cells or untreated cells labeled with either FITC-annexin V or PI, or double-labeled served as internal controls for the background signal. The intensity of the dye uptake by cells was detected using FACStar plus Flow Cytometer (Becton Dickerson, Lincoln Park, N.J.), and data were analyzed using Reproman True Facts software (Seattle, Wash.). Viable cells were FITC−/PI−, apoptotic cells were FITC+/PI−, and necrotic cells were FITC+/PI+.

Row | SMILES | apoptotic cells (A) [1] [%] | viable cells (V) [1] [%] | decrease in the number of viable cells [2] | apoptotic cells (A) ([3]; 2 h) [%] | viable cells (V) ([3]; 2 h) [%] | apoptosis/necrosis, time course analysis [3]
1 | CC1(C)CCCC(C)(C)N1[O] [tempo, 2,2,6,6-tetramethylpiperidine-N-oxyl] | 2.57 | 10.76 | > 50% | 52.42 | 35.83 | steady increase in the number of apoptotic cells for upto 2 h, followed by a considerable increase in the number of necrotic cells by 3 h
2 | CC1(C)CC(O)CC(C)(C)N1[O] [tempol, 4-hydroxy-tempo, reference compound] | 1.20 | – | comparable to control cells | 6.32 | – | did not induce apoptosis or necrosis
